Measured values: US12692238B2, “Substituted pyridazinone herbicides” (FMC CORPORATION, priority 2020, dated 2026)

Experiments:
Type in all cases: in vivo
[1] = tested on: barnyardgrass (Echinochloa crus-galli); experiment: Test A preemergence, barnyardgrass; conditions: 10 days
Procedure, shortened: (§1)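 Visual injury rating on a 0–100 scale (100 = complete control) versus untreated plants after 10 days in greenhouse. Treatments: directed soil spray preemergence after sowing in loam/sand, or postemergence on one- to two-leaf plants 2–10 cm high; surfactant-containing non-phytotoxic solvent formulation.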

[2] = tested on: foxtail, giant (giant foxtail, Setaria faberi); experiment: Test A preemergence, foxtail, giant; conditions: Setaria faberi, pre-emergence, 240 h, 0 to 100 scale, 10 days, read-out: Plant response rating, Foxtail, Giant; for pest or weed control at 31 g/ha: 31 g ai/ha; for pest or weed control at 125 g/ha: 125 g ai/ha
Procedure, shortened: as §1

[3] = tested on: kochia (Bassia scoparia); experiment: Test A preemergence, kochia; conditions: Bassia scoparia, pre-emergence, 240 h, 0 to 100 scale, 10 days, read-out: Plant response rating, Kochia; for pest or weed control at 31 g/ha: 31 g ai/ha; for pest or weed control at 125 g/ha: 125 g ai/ha
Procedure, shortened: as §1

[4] = tested on: redroot pigweed (Amaranthus retroflexus); experiment: Test A preemergence, redroot pigweed; conditions: 0 to 100 scale, 10 days
Procedure, shortened: as §1

[5] = tested on: ragweed (common ragweed, Ambrosia artemisiifolia); experiment: Test A preemergence, ragweed; conditions: Ambrosia artemisiifolia, pre-emergence, 240 h, 0 to 100 scale, 10 days, read-out: Plant response rating, Ragweed; for pest or weed control at 31 g/ha: 31 g ai/ha; for pest or weed control at 125 g/ha: 125 g ai/ha
Procedure, shortened: as §1

[6] = tested on: barnyardgrass (Echinochloa crus-galli); experiment: Test A postemergence, barnyardgrass; conditions: Postemergence, 0 to 100 scale, 10 days
Procedure, shortened: as §1

[7] = tested on: blackgrass (Alopecurus myosuroides); experiment: Test A postemergence, blackgrass; conditions: Alopecurus myosuroides, post-emergence, 240 h, Postemergence, 0 to 100 scale, 10 days, read-out: Plant response rating, Blackgrass; for pest or weed control at 31 g/ha: 31 g ai/ha; for pest or weed control at 125 g/ha: 125 g ai/ha
Procedure, shortened: as §1

[8] = tested on: foxtail, giant (giant foxtail, Setaria faberi); experiment: Test A postemergence, foxtail, giant; conditions: Setaria faberi, post-emergence, 240 h, Postemergence, 0 to 100 scale, 10 days, read-out: Plant response rating, Foxtail, Giant; for pest or weed control at 31 g/ha: 31 g ai/ha; for pest or weed control at 125 g/ha: 125 g ai/ha
Procedure, shortened: as §1

[9] = tested on: kochia (Bassia scoparia); experiment: Test A postemergence, kochia; conditions: Bassia scoparia, post-emergence, 240 h, 10 days, read-out: Plant response rating, Kochia; for pest or weed control at 31 g/ha: 31 g ai/ha, postemergence, 0 to 100 scale (0 no effect, 100 complete control); for pest or weed control at 125 g/ha: Postemergence, 125 g ai/ha, 0 to 100 scale
Procedure, shortened: as §1

[10] = tested on: redroot pigweed (Amaranthus retroflexus); experiment: Test A postemergence, redroot pigweed; conditions: 10 days
Procedure, shortened: as §1

[11] = tested on: ragweed (common ragweed, Ambrosia artemisiifolia); experiment: Test A postemergence, ragweed; conditions: Ambrosia artemisiifolia, post-emergence, 240 h, 10 days, read-out: Plant response rating, Ragweed; for pest or weed control at 31 g/ha: 31 g ai/ha, postemergence, 0 to 100 scale (0 no effect, 100 complete control); for pest or weed control at 125 g/ha: Postemergence, 125 g ai/ha, 0 to 100 scale
Procedure, shortened: as §1

[12] = tested on: ryegrass, Italian (Italian ryegrass, Lolium multiflorum); experiment: Test A postemergence, ryegrass, Italian; conditions: Lolium multiflorum, post-emergence, 240 h, 10 days, read-out: Plant response rating, Ryegrass, Italian; for pest or weed control at 31 g/ha: 31 g ai/ha, postemergence, 0 to 100 scale (0 no effect, 100 complete control); for pest or weed control at 125 g/ha: Postemergence, 125 g ai/ha, 0 to 100 scale
Procedure, shortened: as §1

[13] = tested on: wheat (Triticum aestivum); experiment: Test A postemergence, wheat; conditions: Triticum aestivum, post-emergence, 240 h, 10 days, read-out: Plant response rating, Wheat; for plant injury at 31 g/ha: 31 g ai/ha, postemergence, 0 to 100 scale (0 no effect, 100 complete control); for plant injury at 125 g/ha: Postemergence, 125 g ai/ha, 0 to 100 scale
Procedure, shortened: as §1

[14] = tested on: galium (catchweed bedstraw, Galium aparine); experiment: Test A postemergence, galium; conditions: Galium, post-emergence, 240 h, 10 days, read-out: Plant response rating, Galium; for pest or weed control at 31 g/ha: 31 g ai/ha, postemergence, 0 to 100 scale (0 no effect, 100 complete control); for pest or weed control at 125 g/ha: Postemergence, 125 g ai/ha, 0 to 100 scale
Procedure, shortened: as §1

[15] = tested on: barnyardgrass (Echinochloa crus-galli); experiment: Test B flooded paddy test, barnyardgrass; conditions: Echinochloa crus-galli; 250 g ai/ha, Flood; visually evaluated after 10 to 14 days; read-out: Plant response rating, Barnyardgrass (0 to 100 scale where 0 is no effect and 100 is complete control)
Procedure, shortened: (§2)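 Compound added straight to paddy water of pots flooded to 3 cm, with 2-leaf-stage plants; water level held for the test. Injury scored visually against untreated controls after 10 to 14 greenhouse days, 0 (none) to 100 (complete control).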

[16] = tested on: ducksalad (Heteranthera limosa); experiment: Test B flooded paddy test, ducksalad; conditions: Heteranthera limosa; 250 g ai/ha, Flood; visually evaluated after 10 to 14 days; read-out: Plant response rating, Ducksalad (0 to 100 scale where 0 is no effect and 100 is complete control)
Procedure, shortened: as §2

[17] = 125 g ai/ha, 0 to 100 scale (0 no effect, 100 complete control)
[18] = 31 g ai/ha, postemergence, 0 to 100 scale (0 no effect, 100 complete control)
[19] = Postemergence, 125 g ai/ha, 0 to 100 scale

Row | Structure (SMILES) | Plant response rating, Barnyardgrass ([1]; 31 g ai/ha, 0 to 100 scale) | Plant response rating, Barnyardgrass [1, 17] | pest or weed control at 31 g/ha [2] [%] | pest or weed control at 125 g/ha [2] [%] | pest or weed control at 31 g/ha [3] [%] | pest or weed control at 125 g/ha [3] [%] | Plant response rating, Pigweed, Redroot ([4]; 31 g ai/ha) | Plant response rating, Pigweed, Redroot ([4]; 125 g ai/ha) | Plant response rating, Barnyardgrass ([6]; 31 g ai/ha) | Plant response rating, Barnyardgrass ([6]; 125 g ai/ha) | pest or weed control at 31 g/ha [7] [%] | pest or weed control at 125 g/ha [7] [%] | pest or weed control at 31 g/ha [8] [%] | pest or weed control at 125 g/ha [8] [%] | pest or weed control at 31 g/ha [9] [%] | pest or weed control at 125 g/ha [9] [%] | Plant response rating, Pigweed, Redroot [10, 18] | Plant response rating, Pigweed, Redroot [10, 19] | pest or weed control at 31 g/ha [11] [%] | pest or weed control at 125 g/ha [11] [%] | further results
1 | CC(=O)OCOc1c(C)nn(C)c(=O)c1-c1c(Br)sc2ccc(F)cc12 [Compound 2, 5-[(acetyloxy)methoxy]-4-(2-bromo-5-fluorobenzo[b]thien-3-yl)-2,6-dimethyl-3(2H)-pyridazinone] | 0 | 0 | 30 | 60 | 20 | 50 | 90 | 100 | 50 | 60 | 30 | 30 | 50 | 90 | 70 | 80 | 80 | 90 | 70 | 100 | pest or weed control at 31 g/ha [5]: 70%; pest or weed control at 125 g/ha [5]: 90%; pest or weed control at 31 g/ha [12]: 80%; pest or weed control at 125 g/ha [12]: 100%; plant injury at 31 g/ha [13]: 0%; plant injury at 125 g/ha [13]: 40%; pest or weed control at 31 g/ha [14]: 90%; pest or weed control at 125 g/ha [14]: 100%; pest or weed control at 250 g/ha [15]: 0%; pest or weed control at 250 g/ha [16]: 20%
2 | CC(=O)OCOc1c(Cl)nn(C)c(=O)c1-c1c(C)ccc2ccc(C)cc12 [Compound 3, 5-[(Acetyloxy)methoxy]-6-chloro-4-(2,7-dimethyl-1-naphthalenyl)-2-methyl-3(2H)-pyridazinone] | 60 | 100 | 10 | 100 | 10 | 90 | 100 | 100 | 60 | 90 | 10 | 30 | 80 | 90 | 60 | 80 | 100 | 100 | 90 | 100 | pest or weed control at 31 g/ha [5]: 90%; pest or weed control at 125 g/ha [5]: 90%; pest or weed control at 31 g/ha [12]: 80%; pest or weed control at 125 g/ha [12]: 100%; plant injury at 31 g/ha [13]: 0%; plant injury at 125 g/ha [13]: 20%; pest or weed control at 31 g/ha [14]: 100%; pest or weed control at 125 g/ha [14]: 100%; pest or weed control at 250 g/ha [15]: 98%; pest or weed control at 250 g/ha [16]: 95%
3 | CC(=O)OCOc1c(Cl)nn(C)c(=O)c1-c1c2ccccc2cc2ccccc12 [Compound 10, 5-[(acetyloxy)methoxy]-4-(9-anthracenyl)-6-chloro-2-methyl-3(2H)-pyridazinone] | 0 | 0 | 0 | 20 | 0 | 0 | 100 | 100 | 20 | 10 | 30 | 0 | 10 | 50 | 0 | 10 | 100 | 100 | 100 | 100 | pest or weed control at 31 g/ha [5]: 40%; pest or weed control at 125 g/ha [5]: 40%; pest or weed control at 31 g/ha [12]: 0%; pest or weed control at 125 g/ha [12]: 0%; plant injury at 31 g/ha [13]: 0%; plant injury at 125 g/ha [13]: 0%; pest or weed control at 31 g/ha [14]: 90%; pest or weed control at 125 g/ha [14]: 100%; pest or weed control at 250 g/ha [15]: 15%; pest or weed control at 250 g/ha [16]: 95%
4 | CC(=O)OCOc1c(Cl)nn(C)c(=O)c1-c1c2ccccc2c(Cl)c2ccccc12 [Compound 11, 5-[(acetyloxy)methoxy]-6-chloro-4-(10-chloro-9-anthracenyl)-2-methyl-3(2H)-pyridazinone] | 20 | 30 | 10 | 60 | 0 | 10 | 100 | 100 | 20 | 30 | 40 | 10 | 30 | 80 | 0 | 50 | 100 | 100 | 100 | 100 | pest or weed control at 31 g/ha [12]: 10%; pest or weed control at 125 g/ha [12]: 70%; plant injury at 31 g/ha [13]: 0%; plant injury at 125 g/ha [13]: 0%; pest or weed control at 31 g/ha [14]: 100%; pest or weed control at 125 g/ha [14]: 100%; pest or weed control at 250 g/ha [15]: 15%; pest or weed control at 250 g/ha [16]: 80%
